Toxic doses and inconclusive results are not listed. How the source made its calls: active means survival T/C of 150% or more; inactive means T/C below 125% in these data.
Tested on: P388 leukemia ip, CD2F1 mice, survival T/C
Test: NCI In Vivo Anticancer Drug Screen. Data for tumor model P388 Leukemia (intraperitoneal) in CD2F1 (CDF1) mice
Conditions: endpoint: median survival time, higher = longer survival
How it was run: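 Mice carrying the transplanted tumor received test compound or vehicle. Survival was recorded in each group, and the value is the treated-group measurement divided by that of the vehicle-treated control group.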

[1] = dose: 50.0 mg/kg/injection, schedule: Q01DX005 (ip), vehicle: saline with Tween-80
[2] = dose: 100.0 mg/kg/injection, schedule: Q01DX005 (ip), vehicle: saline with Tween-80
[3] = dose: 200.0 mg/kg/injection, schedule: Q01DX005 (ip), vehicle: saline with Tween-80
[4] = dose: 25.0 mg/kg/injection, schedule: Q04DX003 (ip), vehicle: saline with Tween-80
[5] = dose: 50.0 mg/kg/injection, schedule: Q04DX003 (ip), vehicle: saline with Tween-80

Measured: T/C

CCOC(=O)c1ccc(N(CC(O)CN=[N+]=[N-])S(=O)(=O)c2ccc(C)cc2)cc1 (stereo unspecified)
inactive: dose: 60.0 mg/kg/injection, schedule: Q01DX005 (ip), vehicle: saline with Tween-80 112 % of control | dose: 120.0 mg/kg/injection, schedule: Q01DX005 (ip), vehicle: saline with Tween-80 102 % of control | dose: 240.0 mg/kg/injection, schedule: Q01DX005 (ip), vehicle: saline with Tween-80 96 % of control

COc1ccc(Br)cc1
inactive: dose: 50.0 mg/kg/injection, schedule: Q01DX009 (ip), vehicle: saline with Tween-80 104 % of control | dose: 50.0 mg/kg/injection, schedule: Q04DX003 (ip), vehicle: saline 100 % of control | dose: 100.0 mg/kg/injection, schedule: Q01DX009 (ip), vehicle: saline with Tween-80 118 % of control | dose: 100.0 mg/kg/injection, schedule: Q04DX003 (ip), vehicle: saline 105 % of control | dose: 200.0 mg/kg/injection, schedule: Q01DX009 (ip), vehicle: saline with Tween-80 109 % of control | dose: 200.0 mg/kg/injection, schedule: Q04DX003 (ip), vehicle: saline 110 % of control

CCC12C=CCN3CCC4(c5cc(C6(C(=O)OC)CCCCCc7c6[nH]c6ccccc76)c(OC)cc5N(C)C4C(O)(C(=O)OC)C1OC(C)=O)C32 (stereo unspecified)
inactive: dose: 12.5 mg/kg/injection, schedule: Q01DX001 (ip), vehicle: distilled water + Tween-80 106 % of control | dose: 25.0 mg/kg/injection, schedule: Q01DX001 (ip), vehicle: distilled water + Tween-80 109 % of control | dose: 50.0 mg/kg/injection, schedule: Q01DX001 (ip), vehicle: distilled water + Tween-80 106 % of control | dose: 100.0 mg/kg/injection, schedule: Q01DX001 (ip), vehicle: distilled water + Tween-80 95 % of control | dose: 200.0 mg/kg/injection, schedule: Q01DX001 (ip), vehicle: distilled water + Tween-80 95 % of control

Cc1ccccc1NC(=S)NC1C(=O)Nc2ccccc21 (stereo unspecified)
inactive: [1] 101 % of control | [2] 107 % of control | [3] 98 % of control

O=C(O)CCC(=O)CCl
inactive: dose: 3.13 mg/kg/injection, schedule: Q01DX009 (ip), vehicle: saline 109 % of control | [4] 104 % of control | [5] 108 % of control

O=C(CC1=NC2NN(c3ccccc3)C(=O)C2=C1CC(=O)C(c1ccccc1)c1ccccc1)C(c1ccccc1)c1ccccc1 (stereo unspecified)
inactive: dose: 60.0 mg/kg/injection, schedule: Q01DX005 (ip), vehicle: suspension in saline 98 % of control | dose: 120.0 mg/kg/injection, schedule: Q01DX005 (ip), vehicle: suspension in saline 102 % of control | dose: 240.0 mg/kg/injection, schedule: Q01DX005 (ip), vehicle: suspension in saline 100 % of control

CN(C)CCCN1C(=O)C2CCC(C)(C1=O)C2(C)C (stereo unspecified)
inactive: [1] 100 % of control | [2] 101 % of control

COc1ccc2ccc(/C=C/[N+](=O)[O-])cc2c1OC
inactive: dose: 3.13 mg/kg/injection, schedule: Q01DX009 (ip), vehicle: other 109 % of control | dose: 6.25 mg/kg/injection, schedule: Q01DX009 (ip), vehicle: other 108 % of control | dose: 12.5 mg/kg/injection, schedule: Q01DX009 (ip), vehicle: other 110 % of control | dose: 25.0 mg/kg/injection, schedule: Q01DX009 (ip), vehicle: other 106 % of control

CNc1ccc(N=Nc2ccc3ncccc3c2)cc1
inactive: dose: 3.13 mg/kg/injection, schedule: Q01DX009 (ip), vehicle: saline with Tween-80 104 % of control | dose: 6.25 mg/kg/injection, schedule: Q01DX009 (ip), vehicle: saline with Tween-80 95 % of control | dose: 12.5 mg/kg/injection, schedule: Q01DX009 (ip), vehicle: saline with Tween-80 90 % of control | [4] 100 % of control | [5] 90 % of control | dose: 100.0 mg/kg/injection, schedule: Q04DX003 (ip), vehicle: saline with Tween-80 86 % of control

O=C(NC[N+]12CCO[B-]1(c1cccc(Cl)c1)OCC2)c1ccccc1O (stereo unspecified)
inactive: dose: 50.0 mg/kg/injection, schedule: Q01DX005 (ip), vehicle: Klucel (hydroxypropylcellulose) (HPC) 104 % of control | dose: 100.0 mg/kg/injection, schedule: Q01DX005 (ip), vehicle: Klucel (hydroxypropylcellulose) (HPC) 104 % of control | dose: 200.0 mg/kg/injection, schedule: Q01DX005 (ip), vehicle: Klucel (hydroxypropylcellulose) (HPC) 96 % of control

CCn1c2ccc([N+](=O)[O-])cc2c2c([N+](=O)[O-])c(NC=O)ccc21
inactive: [1] 90 % of control | [2] 95 % of control | [3] 86 % of control

Source: PubChem BioAssay AID330 (DTP/NCI, 2004)
